Laboratory results as given in patent US11192890B2, “FGFR kinase inhibitors and pharmaceutical uses” (AUCKLAND UNISERVICES LIMITED, priority 2017, dated 2021).

Key:
[1] = system: FGFR3 in SW780 cells (phospho-ERK1/2); assay: Drug washout Western blot assay, SW780 cells; format: cell-based; settings: SW780; 30 min exposure, 100 nM, with and without washout
[2] = target: T1, FGFR1 (Homo sapiens, UniProt P11362); assay: Isolated enzyme FRET-based Z-Lyte kinase inhibition assay; format: biochemical; settings: means from 3 independent experiments; read-out: Isolate Enzyme Inhibition IC50, FGFR1
T1 construct: purchased Invitrogen
T1 sequence (P11362 22-822): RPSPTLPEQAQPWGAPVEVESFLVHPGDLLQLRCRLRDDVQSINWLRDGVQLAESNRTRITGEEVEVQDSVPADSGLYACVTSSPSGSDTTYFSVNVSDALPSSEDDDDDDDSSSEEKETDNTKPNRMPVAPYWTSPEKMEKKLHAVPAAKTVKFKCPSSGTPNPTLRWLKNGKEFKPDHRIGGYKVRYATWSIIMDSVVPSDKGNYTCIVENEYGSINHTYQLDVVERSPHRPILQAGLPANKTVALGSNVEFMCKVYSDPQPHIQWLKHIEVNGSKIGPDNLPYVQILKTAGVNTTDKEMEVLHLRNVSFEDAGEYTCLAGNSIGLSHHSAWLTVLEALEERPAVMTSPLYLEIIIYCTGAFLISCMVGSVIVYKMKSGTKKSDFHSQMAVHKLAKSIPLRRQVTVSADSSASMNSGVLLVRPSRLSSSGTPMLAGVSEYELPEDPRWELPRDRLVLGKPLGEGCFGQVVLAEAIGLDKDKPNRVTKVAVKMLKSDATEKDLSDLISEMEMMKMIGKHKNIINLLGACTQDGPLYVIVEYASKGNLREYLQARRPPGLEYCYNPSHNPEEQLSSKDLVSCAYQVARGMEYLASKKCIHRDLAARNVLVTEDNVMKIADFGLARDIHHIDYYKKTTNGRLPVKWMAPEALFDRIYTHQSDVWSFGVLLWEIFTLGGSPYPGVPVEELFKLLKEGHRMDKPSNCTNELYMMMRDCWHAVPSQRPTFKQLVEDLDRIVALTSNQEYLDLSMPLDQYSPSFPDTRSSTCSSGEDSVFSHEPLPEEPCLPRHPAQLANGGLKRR
Experimental: (§1) FGFR1-4 and the Z-Lyte Kinase Assay Kit were purchased from Invitrogen. The concentration gradients from 5.1×10^−11 to 1.0×10^−6 mol/L were used for all the test compounds. The experiments were performed according to the instructions of the manufacturer.
(§2) FGFR1-4 isolated enzyme activity was determined using the FRET-based Z-Lyte kinase inhibition assay. The data are the means from 3 independent experiments.

[3] = target: T2, FGFR2 (Homo sapiens, UniProt P21802); assay: as above; format: biochemical; settings: means from 3 independent experiments; read-out: Isolate Enzyme Inhibition IC50, FGFR2
T2 construct: purchased Invitrogen
T2 sequence (P21802 22-821): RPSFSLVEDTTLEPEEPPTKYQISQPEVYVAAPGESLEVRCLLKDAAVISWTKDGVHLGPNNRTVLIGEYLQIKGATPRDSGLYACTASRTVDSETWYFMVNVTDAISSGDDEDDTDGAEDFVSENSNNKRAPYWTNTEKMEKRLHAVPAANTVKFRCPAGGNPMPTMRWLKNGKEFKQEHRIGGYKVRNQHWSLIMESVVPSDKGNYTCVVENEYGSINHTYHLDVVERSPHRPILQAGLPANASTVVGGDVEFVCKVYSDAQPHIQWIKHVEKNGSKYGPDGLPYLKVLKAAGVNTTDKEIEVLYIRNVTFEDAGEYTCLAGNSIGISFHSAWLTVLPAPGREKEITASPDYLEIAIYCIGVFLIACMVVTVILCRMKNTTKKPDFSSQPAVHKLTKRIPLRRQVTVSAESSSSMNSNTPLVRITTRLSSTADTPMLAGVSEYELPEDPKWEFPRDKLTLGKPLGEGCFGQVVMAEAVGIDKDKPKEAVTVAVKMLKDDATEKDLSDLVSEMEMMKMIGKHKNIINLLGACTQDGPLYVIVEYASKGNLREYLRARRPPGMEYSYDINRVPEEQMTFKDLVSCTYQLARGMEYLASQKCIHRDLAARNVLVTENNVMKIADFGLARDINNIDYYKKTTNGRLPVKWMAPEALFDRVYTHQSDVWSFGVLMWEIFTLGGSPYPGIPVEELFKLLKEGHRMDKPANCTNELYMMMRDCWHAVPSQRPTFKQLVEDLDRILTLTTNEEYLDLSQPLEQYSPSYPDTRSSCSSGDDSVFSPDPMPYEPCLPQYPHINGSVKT
Experimental: as §1, §2

[4] = target: T3, FGFR3 (Homo sapiens, UniProt P22607); assay: as above; format: biochemical; settings: means from 3 independent experiments; read-out: Isolate Enzyme Inhibition IC50, FGFR3
T3 construct: purchased Invitrogen
T3 sequence (P22607 23-806): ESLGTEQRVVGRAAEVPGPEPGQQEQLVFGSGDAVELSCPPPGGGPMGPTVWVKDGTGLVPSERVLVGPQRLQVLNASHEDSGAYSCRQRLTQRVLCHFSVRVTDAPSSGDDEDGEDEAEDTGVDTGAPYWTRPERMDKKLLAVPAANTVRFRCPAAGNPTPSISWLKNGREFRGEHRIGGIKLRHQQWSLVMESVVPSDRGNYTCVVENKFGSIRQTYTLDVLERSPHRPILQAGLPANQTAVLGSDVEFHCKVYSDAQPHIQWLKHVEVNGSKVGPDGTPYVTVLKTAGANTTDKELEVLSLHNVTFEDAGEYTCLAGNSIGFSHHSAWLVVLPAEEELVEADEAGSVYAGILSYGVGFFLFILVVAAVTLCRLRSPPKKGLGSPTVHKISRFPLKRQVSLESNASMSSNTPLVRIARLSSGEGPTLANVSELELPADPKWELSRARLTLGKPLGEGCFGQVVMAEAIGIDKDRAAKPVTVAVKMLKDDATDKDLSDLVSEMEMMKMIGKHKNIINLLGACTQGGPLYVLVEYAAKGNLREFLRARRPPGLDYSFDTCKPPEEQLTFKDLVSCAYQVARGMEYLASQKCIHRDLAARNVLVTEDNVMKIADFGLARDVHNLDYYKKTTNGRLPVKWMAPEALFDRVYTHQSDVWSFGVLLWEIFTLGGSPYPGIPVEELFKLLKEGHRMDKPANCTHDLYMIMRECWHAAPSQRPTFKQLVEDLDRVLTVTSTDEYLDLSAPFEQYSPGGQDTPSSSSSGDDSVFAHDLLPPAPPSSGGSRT
Experimental: as §1, §2

[5] = system: FGFR1 in H520 cells (phospho-ERK1/2); assay: Drug washout Western blot assay, H520 cells; format: cell-based; settings: H520; 30 min exposure, 100 nM, with and without washout

SMILES: CNc1ncc2c(n1)N(C1CCN(C(=O)/C=C/CN3CCOCC3)CC1)C(=O)N(c1c(Cl)c(OC)cc(OC)c1Cl)C2 [Compound 123, (E)-3-(2,6-dichloro-3,5-dimethoxyphenyl)-7-(methylamino)-1-(1-(4-morpholinobut-2-enoyl)piperidin-4-yl)-3,4-dihydropyrimido[4,5-d]pyrimidin-2(1H)-one]
- reversible or irreversible inhibition of FGFR3 in cells [1]: potent reversible inhibitors
- IC50 [2]: 0.7 nM
- IC50 [3]: 2.7 nM
- IC50 [4]: 8.3 nM

SMILES: CNc1ncc2c(n1)N(C1CCC(NC(=O)/C=C/CN(C)C)CC1)C(=O)N(c1c(Cl)c(OC)cc(OC)c1Cl)C2 (stereo not shown) [Compound 126, (E)-N-(4-(3-(2,6-dichloro-3,5-dimethoxyphenyl)-7-(methylamino)-2-oxo-3,4-dihydropyrimido[4,5-d]pyrimidin-1(2H)-yl)cyclohexyl)-4-(dimethylamino)but-2-enamide]
- reversible or irreversible inhibition of FGFR3 in cells [1]: potent reversible inhibitors
- IC50 [2]: 0.5 nM
- IC50 [3]: 1.5 nM
- IC50 [4]: 6.8 nM

SMILES: COc1cc(OC)c(Cl)c(-c2cc3cnc(NC(C)C)nc3n(C3CCN(C(=O)/C=C/CN(C)C)CC3)c2=O)c1Cl [Compound 133, (E)-6-(2,6-dichloro-3,5-dimethoxyphenyl)-8-(1-(4-(dimethylamino)but-2-enoyl)piperidin-4-yl)-2-(isopropylamino)pyrido[2,3-d]pyrimidin-7(8H)-one]
- reversible or irreversible inhibition of FGFR3 in cells [1]: potent irreversible inhibitors
- IC50 [2]: 1 nM
- IC50 [3]: 1.5 nM
- IC50 [4]: 11 nM
- reversible or irreversible inhibition of FGFR1 in cells [5]: potent irreversible inhibitors

SMILES: COc1cc(OC)c(Cl)c(-c2cc3cnc(NCC4CCOCC4)nc3n(C3CCN(C(=O)/C=C/CN(C)C)CC3)c2=O)c1Cl [Compound 137, (E)-6-(2,6-dichloro-3,5-dimethoxyphenyl)-8-(1-(4-(dimethylamino)but-2-enoyl)piperidin-4-yl)-2-(((tetrahydro-2H-pyran-4-l)methyl)amino)pyrido[2,3-d]pyrimidin-7(8H)-one]
- reversible or irreversible inhibition of FGFR3 in cells [1]: potent reversible inhibitors
- IC50 [2]: 0.7 nM
- IC50 [3]: 1.8 nM
- IC50 [4]: 6.2 nM

SMILES: CNc1cc2c(cn1)cc(-c1c(Cl)c(OC)cc(OC)c1Cl)c(=O)n2C1CCN(C(=O)/C=C/CN(C)C)CC1 [Compound 148, (E)-3-(2,6-dichloro-3,5-dimethoxyphenyl)-1-(1-(4-(dimethylamino)but-2-enoyl)piperidin-4-yl)-7-(methylamino)-1,6-naphthyridin-2(1H)-one]
- melting point: 209 to 212 °C

SMILES: COc1cc(OC)c(Cl)c(-c2cc3cnc(NC(C)C)cc3n(C3CCN(C(=O)/C=C/CN(C)C)CC3)c2=O)c1Cl [Compound 149, (E)-3-(2,6-dichloro-3,5-dimethoxyphenyl)-1-(1-(4-(dimethylamino)but-2-enoyl)piperidin-4-yl)-7-(isopropylamino)-1,6-naphthyridin-2(1H)-one]
- melting point: 243 to 246 °C

SMILES: COc1cc(OC)c(Br)c(N2Cc3cnc(NC(C)C)nc3N(C3CCN(C(=O)/C=C/CN(C)C)CC3)C2=O)c1Br [Compound 151, (E)-3-(2,6-dibromo-3,5-dimethoxyphenyl)-1-(1-(4-(dimethylamino)but-2-enoyl)piperidin-4-yl)-7-(isopropylamino)-3,4-dihydropyrimido[4,5-d]pyrimidin-2(1H)-one]
- IC50 [2]: 4.2 nM
- IC50 [3]: 3.5 nM
- IC50 [4]: 35 nM
- reversible or irreversible inhibition of FGFR1 in cells [5]: reversible binding characteristics

SMILES: COc1cc(OC)c(Br)c(-c2cc3cnc(Nc4ccccc4)nc3n(C3CCN(C(=O)/C=C/CN(C)C)CC3)c2=O)c1Br [Compound 152, (E)-6-(2,6-dibromo-3,5-dimethoxyphenyl)-8-(1-(4-(dimethylamino)but-2-enoyl)piperidin-4-yl)-2-(phenylamino)pyrido[2,3-d]pyrimidin-7(8H)-one]
- IC50 [2]: 0.7 nM
- IC50 [3]: 1.1 nM
- IC50 [4]: 2 nM
- reversible or irreversible inhibition of FGFR1 in cells [5]: potent irreversible inhibitors

SMILES: COc1cc(OC)c(Br)c(-c2cc3cnc(NC(C)C)nc3n(C3CCN(C(=O)/C=C/CN(C)C)CC3)c2=O)c1Br [Compound 153, (E)-6-(2,6-dibromo-3,5-dimethoxyphenyl)-8-(1-(4-(dimethylamino)but-2-enoyl)piperidin-4-yl)-2-(isopropylamino)pyrido[2,3-d]pyrimidin-7(8H)-one]
- IC50 [2]: 0.8 nM
- IC50 [3]: 1 nM
- IC50 [4]: 7.6 nM
- reversible or irreversible inhibition of FGFR1 in cells [5]: potent irreversible inhibitors

SMILES: COc1cc(OC)c(Br)c(-c2cc3cnc(NC(C)C)cc3n(C3CCN(C(=O)/C=C/CN(C)C)CC3)c2=O)c1Br [Compound 155, (E)-3-(2,6-dibromo-3,5-dimethoxyphenyl)-1-(1-(4-(dimethylamino)but-2-enoyl)piperidin-4-yl)-7-(isopropylamino)-1,6-naphthyridin-2(1H)-one]
- melting point: 251 to 254 °C

SMILES: COc1cc(OC)c(Cl)c(N2Cc3cnc(Nc4ccccn4)nc3N(C3CCN(C(=O)/C=C/CN(C)C)CC3)C2=O)c1Cl [Compound 157, (E)-3-(2,6-dichloro-3,5-dimethoxyphenyl)-1-(1-(4-(dimethylamino)but-2-enoyl)piperidin-4-yl)-7-(pyridin-2-ylamino)-3,4-dihydropyrimido[4,5-d]pyrimidin-2(1H)-one]
- melting point: 224 to 227 °C

SMILES: COc1cc(OC)c(Cl)c(N2Cc3cnc(Nc4cccnc4)nc3N(C3CCN(C(=O)/C=C/CN(C)C)CC3)C2=O)c1Cl [Compound 158, (E)-3-(2,6-dichloro-3,5-dimethoxyphenyl)-1-(1-(4-(dimethylamino)but-2-enoyl)piperidin-4-yl)-7-(pyridin-3-ylamino)-3,4-dihydropyrimido[4,5-d]pyrimidin-2(1H)-one]
- melting point: 207 to 209 °C

SMILES: COc1cc(OC)c(Cl)c(N2Cc3cnc(Nc4ccncc4)nc3N(C3CCN(C(=O)/C=C/CN(C)C)CC3)C2=O)c1Cl [Compound 159, (E)-3-(2,6-dichloro-3,5-dimethoxyphenyl)-1-(1-(4-(dimethylamino)but-2-enoyl)piperidin-4-yl)-7-(pyridin-4-ylamino)-3,4-dihydropyrimido[4,5-d]pyrimidin-2(1H)-one]
- melting point: > 300 °C

SMILES: COc1cc(OC)c(Cl)c(N2Cc3cnc(Nc4ccn(C)n4)nc3N(C3CCN(C(=O)/C=C/CN(C)C)CC3)C2=O)c1Cl [Compound 160, (E)-3-(2,6-dichloro-3,5-dimethoxyphenyl)-1-(1-(4-(dimethylamino)but-2-enoyl)piperidin-4-yl)-7-((1-methyl-1H-pyrazol-3-yl)amino)-3,4-dihydropyrimido[4,5-d]pyrimidin-2(1H)-one]
- melting point: 203 °C

SMILES: COc1cc(OC)c(Cl)c(-c2cc3cnc(Nc4ccccc4)cc3n(C3CCN(C(=O)/C=C/CN(C)C)CC3)c2=O)c1Cl [Compound 232, (E)-3-(2,6-dichloro-3,5-dimethoxyphenyl)-1-(1-(4-(dimethylamino)but-2-enoyl)piperidin-4-yl)-7-(phenylamino)-1,6-naphthyridin-2(1H)-one]
- melting point: 230 to 233 °C
